# Reference: patent publication US11597721B2, “Heterocyclic compounds comprising pyridine useful as modulators of IL-12, IL-23 and/or IFNα responses” (BRISTOL-MYERS SQUIBB COMPANY, priority 2018, dated 2023)
# Tested on: IFNα-Induced STAT Phosphorylation
# Test: IFNα-Induced STAT Phosphorylation in Human Whole Blood
# Format: cell-based
# Details: Homo sapiens, 1 h compound incubation, 1000 U/mL recombinant human IFNα A/D for 15 min, pSTAT5 in CD3 positive population, read-out: LE Human WB IFNα-Induced Stat Phosph. (IC50)
# Description: IFNα-Induced STAT Phosphorylation in Human Whole Blood
# The amount of pSTAT5 expression was quantitated by median fluorescence intensity after gating on the CD3 positive population.
row,Structure (SMILES),IC50
1,"[2H]C([2H])([2H])NC(=O)c1nnc(NC(=O)C2CC2)cc1Nc1nccc(C#N)c1OC [Example 51, 4-[(4-cyano-3-methoxypyridin-2-yl)amino]-6-cyclopropaneamido-N—(^2H3)methylpyridazine-3-carboxamide]",> 10000 nM
2,"[2H]C([2H])([2H])NC(=O)c1nnc(NC(=O)OC)cc1Nc1nccc(-c2noc(CN3CCOCC3)n2)c1OC [Example 53, methyl N-{5-[(3-methoxy-4-{5-[(morpholin-4-yl)methyl]-1,2,4-oxadiazol-3-yl}pyridin-2-yl)amino]-6-[(^2H3)methylcarbamoyl]pyridazin-3-yl}carbamate]",500 nM
3,"[2H]C([2H])([2H])NC(=O)c1nnc(NC(=O)OC)cc1Nc1nccc(-c2noc(C)n2)c1OC [Example 56, methyl N-(5-{[3-methoxy-4-(5-methyl-1,2,4-oxadiazol-3-yl)pyridin-2-yl]amino}-6-[(^2H3)methylcarbamoyl]pyridazin-3-yl)carbamate]",1340 nM
4,"[2H]C([2H])([2H])NC(=O)c1nnc(Nc2cc(C)ccn2)cc1Nc1nccc(-c2noc(CN(C)S(C)(=O)=O)n2)c1OC [Example 61, 4-[(3-methoxy-4-{5-[(N-methylmethanesulfonamido)methyl]-1,2,4-oxadiazol-3-yl}pyridin-2-yl)amino]-N—(^2H3)methyl-6-[(4-methylpyridin-2-yl)amino]pyridazine-3-carboxamide]",300 nM
5,"[2H]C([2H])([2H])NC(=O)c1nnc(Nc2cc(C)ccn2)cc1Nc1nccc(-c2noc(COC)n2)c1OC [Example 62, 4-({3-methoxy-4-[5-(methoxymethyl)-1,2,4-oxadiazol-3-yl]pyridin-2-yl}amino)-N—(^2H3)methyl-6-[(4-methylpyridin-2-yl)amino]pyridazine-3-carboxamide]",1130 nM
6,"[2H]C([2H])([2H])NC(=O)c1nnc(NC(=O)CC(C)C)cc1Nc1nccc(-c2noc(COC)n2)c1OC [Example 68, 4-({3-methoxy-4-[5-(methoxymethyl)-1,2,4-oxadiazol-3-yl]pyridin-2-yl}amino)-N—(^2H3)methyl-6-(3-methylbutanamido)pyridazine-3-carboxamide]",1420 nM
7,"[2H]C([2H])([2H])NC(=O)c1nnc(NC(=O)CC(C)C)cc1Nc1nccc(-c2noc(CN3CCOCC3)n2)c1OC [Example 69, 4-[(3-methoxy-4-{5-[(morpholin-4-yl)methyl]-1,2,4-oxadiazol-3-yl}pyridin-2-yl)amino]-N—(^2H3)methyl-6-(3-methylbutanamido)pyridazine-3-carboxamide]",700 nM
8,"[2H]C([2H])([2H])NC(=O)c1nnc(NC(=O)CC(C)C)cc1Nc1nccc(-c2noc(CN(C)S(C)(=O)=O)n2)c1OC [Example 70, 4-[(3-methoxy-4-{5-[(N-methylmethanesulfonamido)methyl]-1,2,4-oxadiazol-3-yl}pyridin-2-yl)amino]-N—(^2H3)methyl-6-(3-methylbutanamido)pyridazine-3-carboxamide]",240 nM
9,"[2H]C([2H])([2H])NC(=O)c1nnc(NC(=O)CC(C)C)cc1Nc1nccc(-c2noc(CN3CCOC3=O)n2)c1OC [Example 71, 4-[(3-methoxy-4-{5-[(2-oxo-1,3-oxazolidin-3-yl)methyl]-1,2,4-oxadiazol-3-yl}pyridin-2-yl)amino]-N—(^2H3)methyl-6-(3-methylbutanamido)pyridazine-3-carboxamide]",420 nM

# Compounds with a lower IC50, results first:
row,IC50,Structure (SMILES)
1,210 nM,"[2H]C([2H])([2H])NC(=O)c1nnc(NC(=O)CC)cc1Nc1nccc(-c2noc(COC)n2)c1OC [Example 66, 4-({3-methoxy-4-[5-(methoxymethyl)-1,2,4-oxadiazol-3-yl]pyridin-2-yl}amino)-N—(^2H3)methyl-6-propanamidopyridazine-3-carboxamide]"
2,130 nM,"[2H]C([2H])([2H])NC(=O)c1nnc(NC(=O)C2CC2)cc1Nc1nccc(-c2noc(CC#N)n2)c1OC [Example 60, 4-({4-[5-(cyanomethyl)-1,2,4-oxadiazol-3-yl]-3-methoxypyridin-2-yl}amino)-6-cyclopropaneamido-N—(^2H3)methylpyridazine-3-carboxamide]"
3,120 nM,"[2H]C([2H])([2H])NC(=O)c1nnc(NC(=O)CC)cc1Nc1nccc(-c2noc(CN3CCOCC3)n2)c1OC [Example 65, 4-[(3-methoxy-4-{5-[(morpholin-4-yl)methyl]-1,2,4-oxadiazol-3-yl}pyridin-2-yl)amino]-N—(^2H3)methyl-6-propanamidopyridazine-3-carboxamide]"
4,110 nM,"[2H]C([2H])([2H])NC(=O)c1nnc(NC(=O)OC)cc1Nc1nccc(-c2noc(CN(C)S(C)(=O)=O)n2)c1OC [Example 52, methyl N-{5-[(3-methoxy-4-{5-[(N-methylmethanesulfonamido)methyl]-1,2,4-oxadiazol-3-yl}pyridin-2-yl)amino]-6-[(^2H3)methylcarbamoyl]pyridazin-3-yl}carbamate]"
5,90 nM,"[2H]C([2H])([2H])NC(=O)c1nnc(NC(=O)OC)cc1Nc1nccc(-c2noc(CN3CCCCS3(=O)=O)n2)c1OC [Example 64, methyl N-{5-[(4-{5-[(1,1-dioxo-1λ^6,2-thiazinan-2-yl)methyl]-1,2,4-oxadiazol-3-yl}-3-methoxypyridin-2-yl)amino]-6-[(^2H3)methylcarbamoyl]pyridazin-3-yl}carbamate]"
6,70 nM,"[2H]C([2H])([2H])NC(=O)c1nnc(NC(=O)CC2CC2)cc1Nc1nccc(-c2noc(CN(C)S(C)(=O)=O)n2)c1OC [Example 67, 6-(2-cyclopropylacetamido)-4-[(3-methoxy-4-{5-[(N-methylmethanesulfonamido)methyl]-1,2,4-oxadiazol-3-yl}pyridin-2-yl)amino]-N—(^2H3)methylpyridazine-3-carboxamide]"
7,60 nM,"[2H]C([2H])([2H])NC(=O)c1nnc(NC(=O)C2CC2)cc1Nc1nccc(-c2noc([C@H](C)O)n2)c1OC [Example 57, 6-cyclopropaneamido-4-[(4-{5-[(1S)-1-hydroxyethyl]-1,2,4-oxadiazol-3-yl}-3-methoxypyridin-2-yl)amino]-N—(^2H3)methylpyridazine-3-carboxamide]"
8,60 nM,"[2H]C([2H])([2H])NC(=O)c1nnc(NC(=O)C2CC2)cc1Nc1nccc(-c2noc(CN(C)C)n2)c1OC [Example 58, 6-cyclopropaneamido-4-[(4-{5-[(dimethylamino)methyl]-1,2,4-oxadiazol-3-yl}-3-methoxypyridin-2-yl)amino]-N—(^2H3)methylpyridazine-3-carboxamide]"
9,30 nM,"[2H]C([2H])([2H])NC(=O)c1nnc(NC(=O)C2CC2)cc1Nc1nccc(-c2noc(CN3CCOCC3)n2)c1OC [Example 55, 6-cyclopropaneamido-4-[(3-methoxy-4-{5-[(morpholin-4-yl)methyl]-1,2,4-oxadiazol-3-yl}pyridin-2-yl)amino]-N—(^2H3)methylpyridazine-3-carboxamide]"
10,10 nM,"[2H]C([2H])([2H])NC(=O)c1nnc(NC(=O)C2CC2)cc1Nc1nccc(-c2noc(CN(C)S(C)(=O)=O)n2)c1OC [Example 54, 6-cyclopropaneamido-4-[(3-methoxy-4-{5-[(N-methylmethanesulfonamido)methyl]-1,2,4-oxadiazol-3-yl}pyridin-2-yl)amino]-N—(^2H3)methylpyridazine-3-carboxamide]"
